The test system of experiment [1] is α-isomaltosylglucosaccharide-forming enzyme. Nature of the experiment: Transfer-acceptor specificity, enzyme of A19 strain. Format: biochemical, Arthrobacter globiformis A19 strain. Conditions: acceptor 1.6%, PINE-DEX #100 donor 4%, one unit/g donor, 30° C., pH 8.4, 24 hours. The procedure: (§1) Using various saccharides, it was tested whether the saccharides were used as transferring-acceptors for α-isomaltosylglucosaccharide-forming enzyme. A solution of D-glucose, D-xylose, L-xylose, D-galactose, D-fructose, D-mannose, D-arabinose, D-fucose, D-psicose, L-sorbose, L-rhamnose, methyl-α-glucopyranoside, methyl-β-glucopyranoside, N-acetyl-glucosamine, sorbitol, α,α-trehalose, isomaltose, isomaltotriose, cellobiose, gentibiose, glycerol, maltitol, lactose, sucrose, α-cyclodextrin, β-cyclodextrin, γ-cyclodextrin, or L-ascorbic acid was prepared. To each solution with a saccharide concentration of 1.6% was added “PINE-DEX #100”, a partial starch hydrolyzate, as a saccharide donor, to give a concentration of 4%, and admixed with one unit/g saccharide donor, d.s.b., of either of purified specimens of α-isomaltosylglucosaccharide-forming enzyme from Bacillus globisporus C9 strain obtained by the method in Experiment 4-2, Bacillus globisporus C11 strain obtained by the method in Experiment 7-2, Bacillus globisporus N75 strain obtained by the method in Experiment 11-2, or Arthrobacter globiformis A19 strain obtained by the method in Experiment 15-2, and incubated at 30° C. and pH 6.0 for 24 hours, except that pH 8.4 was used for the enzyme from Arthrobacter globiformis A19 strain. The reaction mixtures of the post-enzymatic reactions were analyzed on gas chromatography (abbreviated as “GLC” hereinafter) for monosaccharides and disaccharides as acceptors, and on HPLC for trisaccharides as acceptors to confirm whether these saccharides could be used as the transfer acceptors of the above enzymes. In the case of performing GLC, the following apparatuses and conditions were used: GLC apparatus, “GC-16A” commercialized by Shimadzu Corporation, Tokyo, Japan; column, a stainless-steel column, 3 mm in diameter and 2 m in length, packed with 2% “SILICONE OV-17/CHROMOSOLV W”, commercialized by GL Sciences Inc., Tokyo, Japan; carrier gas, nitrogen gas at a flow rate of 40 ml/min under temperature conditions of increasing from 160° C. to 320° C. at an increasing temperature rate of 7.5° C./min; and detection, a hydrogen flame ionization detector. In the case of performing HPLC analysis, the following apparatuses and conditions were used: HPLC apparatus, “CCPD” commercialized by Tosoh Corporation, Tokyo, Japan; column, “ODS-AQ-303” commercialized by YMC Co., Ltd., Tokyo, Japan; eluent, water at a flow rate of 0.5 ml/min; and detection, a differential refractometer.

For experiment [2] the test system is unchanged. Nature of the experiment: Transfer-acceptor specificity, enzyme of C9 strain. Format: biochemical, Bacillus globisporus C9 strain. The note with it: acceptor 1.6%, PINE-DEX #100 donor 4%, one unit/g donor, 30° C., pH 6.0, 24 hours. Details: key: −: no saccharide-transferred product was detected through transfer reaction to acceptor; ±: a saccharide-transferred product was detected in an amount less than one percent through transfer reaction to acceptor; +: a saccharide-transferred product was detected in an amount over one percent but less than 10% through transfer reaction to acceptor; ++: a saccharide-transferred product was detected in an amount over ten percent through transfer reaction to acceptor. The procedure: as §1

For experiment [3] the test system is unchanged. The experiment is described as follows: Transfer-acceptor specificity, enzyme of C11 strain. The note with it: acceptor 1.6%, PINE-DEX #100 donor 4%, one unit/g donor, 30° C., pH 6.0, 24 hours. Also noted: key: −: no saccharide-transferred product was detected through transfer reaction to acceptor; ±: a saccharide-transferred product was detected in an amount less than one percent through transfer reaction to acceptor; +: a saccharide-transferred product was detected in an amount over one percent but less than 10% through transfer reaction to acceptor; ++: a saccharide-transferred product was detected in an amount over ten percent through transfer reaction to acceptor. The class given is biochemical, Bacillus globisporus C11 strain. The procedure:
as §1

The test system is the same in experiment [4]. The experiment is described as follows: Transfer-acceptor specificity, enzyme of N75 strain. The class given is biochemical, Bacillus globisporus N75 strain. Details: key: −: no saccharide-transferred product was detected through transfer reaction to acceptor; ±: a saccharide-transferred product was detected in an amount less than one percent through transfer reaction to acceptor; +: a saccharide-transferred product was detected in an amount over one percent but less than 10% through transfer reaction to acceptor; ++: a saccharide-transferred product was detected in an amount over ten percent through transfer reaction to acceptor. The note with it: acceptor 1.6%, PINE-DEX #100 donor 4%, one unit/g donor, 30° C., pH 6.0, 24 hours. The procedure: as §1

The structures appear in SMILES notation.

On to `O=C[C@@H](O)[C@H](O)[C@H](O)CO` [D-Arabinose, D-arabinose], for which the “Product of transferring reaction, Enzyme of A19 strain” value (shortened to “Product … of A19 strain”) in experiment [1] was “± (a saccharide-transferred product was detected in an amount less than one percent through transfer reaction to acceptor)”. The “Product of transferring reaction, Enzyme of C9 strain” value (shortened to “Product … of C9 strain”) in experiment [2] was “± (a saccharide-transferred product was detected in an amount less than one percent through transfer reaction to acceptor)”. In experiment [3], the “Product of transferring reaction, Enzyme of C11 strain” value (from here on “Product … of C11 strain”) is on record as “± (a saccharide-transferred product was detected in an amount less than one percent through transfer reaction to acceptor)”. The “Product of transferring reaction, Enzyme of N75 strain” value (from here on “Product … of N75 strain”) in experiment [4] is “± (a saccharide-transferred product was detected in an amount less than one percent through transfer reaction to acceptor)”.

Regarding `O=C(CO)[C@@H](O)[C@H](O)[C@H](O)CO` [D-Fructose, D-fructose], the “Product … of A19 strain” value in experiment [1] was “+ (a saccharide-transferred product was detected in an amount over one percent but less than 10% through transfer reaction to acceptor)”. Further, the “Product … of C9 strain” value in experiment [2] is recorded as “+ (a saccharide-transferred product was detected in an amount over one percent but less than 10% through transfer reaction to acceptor)”. Also, in experiment [3], the “Product … of C11 strain” value is “+ (a saccharide-transferred product was detected in an amount over one percent but less than 10% through transfer reaction to acceptor)”. Moreover, in experiment [4], the “Product … of N75 strain” value is given as “+ (a saccharide-transferred product was detected in an amount over one percent but less than 10% through transfer reaction to acceptor)”.

For `C[C@@H](O)[C@H](O)[C@H](O)[C@@H](O)C=O` [D-Fucose, D-fucose], the “Product … of A19 strain” value in experiment [1] was “± (a saccharide-transferred product was detected in an amount less than one percent through transfer reaction to acceptor)”. For the same molecule, the “Product … of C9 strain” value in experiment [2] is “+ (a saccharide-transferred product was detected in an amount over one percent but less than 10% through transfer reaction to acceptor)”. Further, in experiment [3], the “Product … of C11 strain” value is “+ (a saccharide-transferred product was detected in an amount over one percent but less than 10% through transfer reaction to acceptor)”. Also, in experiment [4], the “Product … of N75 strain” value was “+ (a saccharide-transferred product was detected in an amount over one percent but less than 10% through transfer reaction to acceptor)”.

On to `O=C[C@H](O)[C@@H](O)[C@@H](O)[C@H](O)CO` [D-Galactose, D-galactose], for which the “Product … of A19 strain” value in experiment [1] was “± (a saccharide-transferred product was detected in an amount less than one percent through transfer reaction to acceptor)”. In addition, the “Product … of C9 strain” value in experiment [2] is on record as “+ (a saccharide-transferred product was detected in an amount over one percent but less than 10% through transfer reaction to acceptor)”. Further, the “Product … of C11 strain” value in experiment [3] was “+ (a saccharide-transferred product was detected in an amount over one percent but less than 10% through transfer reaction to acceptor)”. Further, the “Product … of N75 strain” value in experiment [4] is listed as “+ (a saccharide-transferred product was detected in an amount over one percent but less than 10% through transfer reaction to acceptor)”.

Consider `O=C[C@H](O)[C@@H](O)[C@H](O)[C@H](O)CO` [D-Glucose, D-glucose], for which the “Product … of A19 strain” value in experiment [1] is “+ (a saccharide-transferred product was detected in an amount over one percent but less than 10% through transfer reaction to acceptor)”. Further, in experiment [2], the “Product … of C9 strain” value is on record as “+ (a saccharide-transferred product was detected in an amount over one percent but less than 10% through transfer reaction to acceptor)”. The “Product … of C11 strain” value in experiment [3] is reported as “+ (a saccharide-transferred product was detected in an amount over one percent but less than 10% through transfer reaction to acceptor)”. In experiment [4], the “Product … of N75 strain” value is “+ (a saccharide-transferred product was detected in an amount over one percent but less than 10% through transfer reaction to acceptor)”.

Take `O=C[C@@H](O)[C@@H](O)[C@H](O)[C@H](O)CO` [D-Mannose, D-mannose]: the “Product … of A19 strain” value in experiment [1] is “± (a saccharide-transferred product was detected in an amount less than one percent through transfer reaction to acceptor)”. Further, the “Product … of C9 strain” value in experiment [2] is on record as “−”. In experiment [3], the “Product … of C11 strain” value is reported as “−”. In experiment [4], the “Product … of N75 strain” value was “−”.

Consider `O=C(CO)[C@H](O)[C@H](O)[C@H](O)CO` [D-Psicose, D-psicose], for which the “Product … of A19 strain” value in experiment [1] is recorded as “+ (a saccharide-transferred product was detected in an amount over one percent but less than 10% through transfer reaction to acceptor)”. Also, the “Product … of C9 strain” value in experiment [2] is recorded as “+ (a saccharide-transferred product was detected in an amount over one percent but less than 10% through transfer reaction to acceptor)”. The “Product … of C11 strain” value in experiment [3] was “+ (a saccharide-transferred product was detected in an amount over one percent but less than 10% through transfer reaction to acceptor)”. In addition, the “Product … of N75 strain” value in experiment [4] was “+ (a saccharide-transferred product was detected in an amount over one percent but less than 10% through transfer reaction to acceptor)”.

Turning to `O=C[C@H](O)[C@@H](O)[C@H](O)CO` [D-Xylose, D-xylose], in experiment [1], the “Product … of A19 strain” value is reported as “+ (a saccharide-transferred product was detected in an amount over one percent but less than 10% through transfer reaction to acceptor)”. The “Product … of C9 strain” value in experiment [2] is on record as “++ (a saccharide-transferred product was detected in an amount over ten percent through transfer reaction to acceptor)”. Further, in experiment [3], the “Product … of C11 strain” value is “++ (a saccharide-transferred product was detected in an amount over ten percent through transfer reaction to acceptor)”. For the same molecule, the “Product … of N75 strain” value in experiment [4] is “++ (a saccharide-transferred product was detected in an amount over ten percent through transfer reaction to acceptor)”.

Take `OCC(O)CO` [Glycerol, glycerol]: in experiment [1], the “Product … of A19 strain” value is listed as “+ (a saccharide-transferred product was detected in an amount over one percent but less than 10% through transfer reaction to acceptor)”. In addition, the “Product … of C9 strain” value in experiment [2] is given as “+ (a saccharide-transferred product was detected in an amount over one percent but less than 10% through transfer reaction to acceptor)”. Besides, in experiment [3], the “Product … of C11 strain” value is reported as “+ (a saccharide-transferred product was detected in an amount over one percent but less than 10% through transfer reaction to acceptor)”. The “Product … of N75 strain” value in experiment [4] is reported as “+ (a saccharide-transferred product was detected in an amount over one percent but less than 10% through transfer reaction to acceptor)”.

On to `O=C1O[C@H]([C@@H](O)CO)C(O)=C1O` [L-Ascorbic acid, L-ascorbic acid], for which the “Product … of A19 strain” value in experiment [1] is recorded as “+ (a saccharide-transferred product was detected in an amount over one percent but less than 10% through transfer reaction to acceptor)”. Further, in experiment [2], the “Product … of C9 strain” value is “+ (a saccharide-transferred product was detected in an amount over one percent but less than 10% through transfer reaction to acceptor)”. Moreover, the “Product … of C11 strain” value in experiment [3] is “+ (a saccharide-transferred product was detected in an amount over one percent but less than 10% through transfer reaction to acceptor)”. Moreover, in experiment [4], the “Product … of N75 strain” value was “+ (a saccharide-transferred product was detected in an amount over one percent but less than 10% through transfer reaction to acceptor)”.

(Values after patent US7592160B2, “Processes for producing isomaltose and isomaltitol and use thereof” (Kabushiki Kaisha Hayashibara Seibutsu Kagaku Kenkyujo, priority 2001, dated 2009).)
